Measurements: patent US7759345B2, “Antitumoral derivatives of ET-743” (priority 2001, dated 2010)

How the values were obtained:
Assay type in all cases: cell-based
Details in all cases: SRB, 48 hours exposure
HMEC1 = assay: Inhibition of cells growth by colorimetric assay (SRB), HMEC1
Procedure: (§1) 2°.—Inhibition of Cells Growth by Colorimetric Assay.
(§2) A colorimetric type of assay, using sulforhodamine B (SRB) reaction has been adapted for a quantitative measurement of cell growth and viability [following the technique described by Philip Skehan, et al. (1990), New colorimetric cytotoxicity assay for anticancer drug screening, J. Natl. Cancer Inst., 82:1107-1112]
(§3) This form of the assay employs 96 well cell culture microplates of 9 mm diameter (Faircloth, 1988; Mosmann, 1983). Most of the cell lines are obtained from American Type Culture Collection (ATCC) derived from different human cancer types.
(§4) Cells are maintained in RPMI 1640 10% FBS, supplemented with 0.1 g/l penicillin and 0.1 g/l streptomycin sulfate and then incubated at 37° C., 5% CO2 and 98% humidity. For the experiments, cells were harvested from subconfluent cultures using trypsin and resuspended in fresh medium before plating.
(§5) Cells are seeded in 96 well microtiter plates, at 5×10^3 cells per well in aliquots of 195 μl medium, and they are allowed to attach to the plate surface by growing in drug free medium for 18 hours. Afterward, samples are added in aliquots of 5 μl in a ranging from 10 to 10^−8 μg/ml, dissolved in DMSO/EtOH/PBS (0.5:0.5:99). After 48 hours exposure, the antitumor effect are measured by the SRB methodology: cells are fixed by adding 50 μl of cold 50% (wt/vol) trichloroacetic acid (TCA) and incubating for 60 minutes at 4° C. Plates are washed with deionized water and dried. One hundred μl of SRB solution (0.4% wt/vol in 1% acetic acid) is added to each microtiter well and incubated for 10 minutes at room temperature. Unbound SRB is removed by washing with 1% acetic acid. Plates are air dried and bound stain is solubilized with Tris buffer. Optical densities are read on a automated spectrophotometric plate reader at a single wavelength of 490 nm.
(§6) The values for mean+/−SD of data from triplicate wells are calculated. Some parameters for cellular responses can be calculated: GI=growth inhibition, TGI=total growth inhibition (cytostatic effect) and LC=cell killing (cytotoxic effect).
(§7) Obtained results may predict the usefulness of a certain drug as a potential cancer treatment. For this technique, compounds which show GI50 values smaller than 10 μg/ml are selected to continue with further studies. GI50's data allow to predict that not only could a drug be cystostatic, but also it could have a potential in terms of tumor reduction.

LoVo-Dox = assay: Inhibition of cells growth by colorimetric assay (SRB), LoVo-Dox
Procedure: as §1, §2, §3, §4, §5, §6, §7

K-562 = assay: Inhibition of cells growth by colorimetric assay (SRB), K-562
Procedure: as §1, §2, §3, §4, §5, §6, §7

HT-29 = assay: Inhibition of cells growth by colorimetric assay (SRB), HT-29
Method in brief: (§8)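 Human cancer cells (5×10^3/well) attached 18 h in RPMI 1640 10% FBS, then exposed 48 h at 37°C to compounds from 10 to 10^−8 μg/ml in DMSO/EtOH/PBS. TCA-fixed, SRB-stained, OD read at 490 nm; GI, TGI and LC derived from triplicate wells.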

LNCaP = assay: Inhibition of cells growth by colorimetric assay (SRB), LNCaP
Procedure: as §1, §2, §3, §4, §5, §6, §7

IGROV-ET = assay: Inhibition of cells growth by colorimetric assay (SRB), IGROV-ET
Procedure: as §1, §2, §3, §4, §5, §6, §7

PANC-1 = assay: Inhibition of cells growth by colorimetric assay (SRB), PANC-1
Procedure: as §1, §2, §3, §4, §5, §6, §7

DU-145 = assay: Inhibition of cells growth by colorimetric assay (SRB), DU-145
Procedure: as §1, §2, §3, §4, §5, §6, §7

SK-BR-3 = assay: Inhibition of cells growth by colorimetric assay (SRB), SK-BR-3
Procedure: as §1, §2, §3, §4, §5, §6, §7

SK-OV-3 = assay: Inhibition of cells growth by colorimetric assay (SRB), SK-OV-3
Procedure: as §1, §2, §3, §4, §5, §6, §7

LoVo = assay: Inhibition of cells growth by colorimetric assay (SRB), LoVo
Procedure: as §1, §2, §3, §4, §5, §6, §7

A-549 = assay: Inhibition of cells growth by colorimetric assay (SRB), A-549
Method in brief: as §8

SK-MEL-28 = assay: Inhibition of cells growth by colorimetric assay (SRB), SK-MEL-28
Method in brief: as §8

IGROV-1 = assay: Inhibition of cells growth by colorimetric assay (SRB), IGROV-1
Procedure: as §1, §2, §3, §4, §5, §6, §7

**Q.** Which “HMEC-1 TGI” value (HMEC1; HMEC-1) does the source give for C=COC(=O)N1CCc2cc(O)c(OC)cc2[C@@]12CS[C@@H]1c3c(OC(C)=O)c(C)c4c(c3[C@H](COC2=O)N2C1[C@H]1c3c(cc(C)c(OC)c3O)C[C@@H]([C@@H]2O)N1C)OCO4 (stereo partly drawn) [Compound 95] here?
**A.** Its value is 2.80E-08.

**Q.** What about the GI50 (HMEC1; Homo sapiens, HMEC-1, 48 h, HMEC-1, read-out: HMEC-1 GI50) of the same molecule?
**A.** The GI50 was 9.36 nM.

**Q.** And the LC50 (HMEC1; Homo sapiens, HMEC-1, 48 h, read-out: HMEC-1 LC50, HMEC-1)?
**A.** The LC50 was 75.6 nM.

**Q.** And the GI50 (LoVo-Dox; Homo sapiens, 48 h, LOVO-DOX, read-out: LOVO-DOX GI50)?
**A.** The GI50 was 240 nM.

**Q.** And the CC50 (LoVo-Dox; Homo sapiens, 48 h, read-out: LOVO-DOX LC50, LOVO-DOX)?
**A.** The CC50 was 12000 nM.

**Q.** And the “LOVO-DOX TGI” value (LoVo-Dox; LOVO-DOX)?
**A.** The value was 8.68E-07.

**Q.** What about the GI50 (K-562; Homo sapiens, K562, 48 h, K-562, read-out: K-562 GI50) of the same molecule?
**A.** Its GI50 is 15.3 nM.

**Q.** What about the LC50 (50% cell killing) (K-562; Homo sapiens, K562, 48 h, read-out: K-562 LC50, K-562) of the same molecule?
**A.** Its LC50 (50% cell killing) is 2220 nM.

**Q.** And the “K-562 TGI” value (K-562; K-562)?
**A.** Its value is 5.30E-08.

**Q.** And the “HT-29 TGI” value (HT-29; HT-29)?
**A.** The value was 1.27E-07.

**Q.** What about the GI50 (HT-29; Homo sapiens, HT-29, 48 h, HT-29, read-out: HT-29 GI50) of the same molecule?
**A.** Its GI50 is 40.4 nM.

**Q.** And the LC50 (concentration for 50% cell killing) (HT-29; Homo sapiens, HT-29, 48 h, read-out: HT-29 LC50, HT-29)?
**A.** Its LC50 (concentration for 50% cell killing) is 12000 nM.

**Q.** And the GI50 (LNCaP; Homo sapiens, LNCaP, 48 h, read-out: LNCAP GI50, LNCAP)?
**A.** The GI50 was 17.7 nM.

**Q.** What about the CC50 (LNCaP; Homo sapiens, LNCaP, 48 h, read-out: LNCAP LC50, LNCAP) of the same molecule?
**A.** Its CC50 is 66 nM.

**Q.** What about the “LNCAP TGI” value (LNCaP; LNCAP) of the same molecule?
**A.** The value was 3.41E-08.

**Q.** What about the GI50 (IGROV-ET; Homo sapiens, 48 h, IGROV-ET, read-out: IGROV-ET GI50) of the same molecule?
**A.** Its GI50 is 50.5 nM.

**Q.** What about the CC50 (IGROV-ET; Homo sapiens, 48 h, read-out: IGROV-ET LC50, IGROV-ET) of the same molecule?
**A.** Its CC50 is 12000 nM.

**Q.** And the “IGROV-ET TGI” value (IGROV-ET; IGROV-ET)?
**A.** The value was 1.16E-07.

**Q.** What about the GI50 (PANC-1; Homo sapiens, PANC-1, 48 h, PANC-1, read-out: PANC-1 GI50) of the same molecule?
**A.** The GI50 was 38.8 nM.

**Q.** And the LC50 (concentration for 50% net cell kill) (PANC-1; Homo sapiens, PANC-1, 48 h, read-out: PANC-1 LC50, PANC-1)?
**A.** The LC50 (concentration for 50% net cell kill) was 1090 nM.

**Q.** And the “PANC-1 TGI” value (PANC-1; PANC-1)?
**A.** Its value is 1.08E-07.

**Q.** And the “DU-145 TGI” value (DU-145; DU-145)?
**A.** Its value is 8.92E-08.

**Q.** What about the GI50 (DU-145; Homo sapiens, DU-145, 48 h, DU-145, read-out: DU-145 GI50) of the same molecule?
**A.** Its GI50 is 37.6 nM.

**Q.** What about the CC50 (DU-145; Homo sapiens, DU-145, 48 h, read-out: DU-145 LC50, DU-145) of the same molecule?
**A.** Its CC50 is 1010 nM.

**Q.** What about the GI50 (SK-BR-3; Homo sapiens, SK-BR-3, 48 h, SK-BR3, read-out: SK-BR3 GI50) of the same molecule?
**A.** The GI50 was 29.8 nM.

**Q.** And the CC50 (SK-BR-3; Homo sapiens, SK-BR-3, 48 h, read-out: SK-BR3 LC50, SK-BR3)?
**A.** Its CC50 is 522 nM.

**Q.** What about the “SK-BR3 TGI” value (SK-BR-3; SK-BR3) of the same molecule?
**A.** Its value is 7.62E-08.

**Q.** And the GI50 (SK-OV-3; Homo sapiens, SK-OV-3, 48 h, SK-OV3, read-out: SK-OV3 GI50)?
**A.** The GI50 was 28.1 nM.

**Q.** And the LC50 (SK-OV-3; Homo sapiens, SK-OV-3, 48 h, read-out: SK-OV3 LC50, SK-OV3)?
**A.** The LC50 was 368 nM.

**Q.** What about the “SK-OV3 TGI” value (SK-OV-3; SK-OV3) of the same molecule?
**A.** Its value is 6.59E-08.

**Q.** What about the GI50 (LoVo; Homo sapiens, LoVo, 48 h, LOVO, read-out: LOVO GI50) of the same molecule?
**A.** Its GI50 is 26.2 nM.

**Q.** And the LC50 (concentration for 50% cell killing) (LoVo; Homo sapiens, LoVo, 48 h, read-out: LOVO LC50, LOVO)?
**A.** The LC50 (concentration for 50% cell killing) was 111 nM.

**Q.** And the “LOVO TGI” value (LoVo; LOVO)?
**A.** Its value is 5.40E-08.

**Q.** What about the “A-549 TGI” value (A-549; A-549) of the same molecule?
**A.** Its value is 5.55E-08.

**Q.** What about the GI50 (A-549; Homo sapiens, A549, 48 h, A-549, read-out: A-549 GI50) of the same molecule?
**A.** The GI50 was 26.8 nM.

**Q.** And the LC50 (concentration for 50% cell killing) (A-549; Homo sapiens, A549, 48 h, read-out: A-549 LC50, A-549)?
**A.** Its LC50 (concentration for 50% cell killing) is 147 nM.

**Q.** And the GI50 (SK-MEL-28; Homo sapiens, SK-MEL-28, 48 h, MEL-28, read-out: MEL-28 GI50)?
**A.** The GI50 was 25.2 nM.

**Q.** And the CC50 (SK-MEL-28; Homo sapiens, SK-MEL-28, 48 h, read-out: MEL-28 LC50, MEL-28)?
**A.** Its CC50 is 83.2 nM.

**Q.** What about the “MEL-28 TGI” value (SK-MEL-28; MEL-28) of the same molecule?
**A.** The value was 4.58E-08.

**Q.** And the GI50 (IGROV-1; Homo sapiens, IGROV-1, 48 h, IGROV, read-out: IGROV GI50)?
**A.** Its GI50 is 28 nM.

**Q.** And the CC50 (IGROV-1; Homo sapiens, IGROV-1, 48 h, read-out: IGROV LC50, IGROV)?
**A.** Its CC50 is 1090 nM.

**Q.** What about the “IGROV TGI” value (IGROV-1; IGROV) of the same molecule?
**A.** Its value is 6.67E-08.
